Converted amounts (≈) assume the structure as drawn.
How the values were obtained:
Assay type in all cases: functional
Prevotella intermedia = test: Antimicrobial activity against Prevotella intermedia by disk diffusion method
Actinomyces viscosus = test: Antimicrobial activity against Actinomyces viscosus W1053 by disk diffusion method
Streptococcus mutans = test: Antimicrobial activity against Streptococcus mutans Ingbritt by disk diffusion method
Porphyromonas gingivalis = test: Antimicrobial activity against Porphyromonas gingivalis ATCC 33277 by disk diffusion method

SMILES | MIC (Prevotella intermedia) | MIC (Actinomyces viscosus) | MIC (Streptococcus mutans) | MIC (Porphyromonas gingivalis)
Cc1cc(=O)c2c(O)c([C@@H]3O[C@H](CO)[C@@H](O)[C@H](O)[C@H]3O)c(O)cc2o1 [BIFLORIN] | 625 µg/mL (≈ 1760 µM) | > 2500 µg/mL | > 2500 µg/mL | 625 µg/mL (≈ 1760 µM)
O=c1oc2c(O)c(O)cc3c(=O)oc4c(O)c(O)cc1c4c23 [ELLAGIC ACID] | 1250 µg/mL (≈ 4140 µM) | 1250 µg/mL (≈ 4140 µM) | 1250 µg/mL (≈ 4140 µM) | 1250 µg/mL (≈ 4140 µM)
O=C(O)c1cc(O)c(O)c(O)c1 [GALLIC ACID] | 78 µg/mL (≈ 458 µM) | 78 µg/mL (≈ 458 µM) | > 2500 µg/mL | 156 µg/mL (≈ 917 µM)
O=c1c(O)c(-c2ccc(O)cc2)oc2cc(O)cc(O)c12 [KAEMPFEROL] | 20 µg/mL (≈ 69.9 µM) | 1250 µg/mL (≈ 4370 µM) | 2500 µg/mL (≈ 8730 µM) | 20 µg/mL (≈ 69.9 µM)
O=c1c(O)c(-c2cc(O)c(O)c(O)c2)oc2cc(O)cc(O)c12 [MYRICETIN] | 20 µg/mL (≈ 62.8 µM) | 1250 µg/mL (≈ 3930 µM) | 2500 µg/mL (≈ 7860 µM) | 20 µg/mL (≈ 62.8 µM)
CC1(C)CC[C@]2(C(=O)O)CC[C@]3(C)C(=CC[C@@H]4[C@@]5(C)CC[C@H](O)C(C)(C)[C@@H]5CC[C@]43C)[C@@H]2C1 [OLEANOLIC_ACID] | 1250 µg/mL (≈ 2740 µM) | 625 µg/mL (≈ 1370 µM) | 1250 µg/mL (≈ 2740 µM) | 625 µg/mL (≈ 1370 µM)
COc1cc(O)c2c(=O)c(O)c(-c3ccc(O)cc3)oc2c1 [RHAMNOCITRIN] | 625 µg/mL (≈ 2080 µM) | 1250 µg/mL (≈ 4160 µM) | 1250 µg/mL (≈ 4160 µM) | 625 µg/mL (≈ 2080 µM)
C[n+]1cc2c3c(ccc2c2ccc4cc5c(cc4c21)OCO5)OCO3 [SANGUINARIUM] | 2 µg/mL | 15 µg/mL | 15 µg/mL | 2 µg/mL
